US11535630B2, “Apelin receptor (APJ) agonists and uses thereof” (Research Triangle Institute, priority 2015, dated 2022)

Biological target: T1, apelin receptor (APJ) (Homo sapiens, UniProt P35414)
T1 sequence (P35414 1-380): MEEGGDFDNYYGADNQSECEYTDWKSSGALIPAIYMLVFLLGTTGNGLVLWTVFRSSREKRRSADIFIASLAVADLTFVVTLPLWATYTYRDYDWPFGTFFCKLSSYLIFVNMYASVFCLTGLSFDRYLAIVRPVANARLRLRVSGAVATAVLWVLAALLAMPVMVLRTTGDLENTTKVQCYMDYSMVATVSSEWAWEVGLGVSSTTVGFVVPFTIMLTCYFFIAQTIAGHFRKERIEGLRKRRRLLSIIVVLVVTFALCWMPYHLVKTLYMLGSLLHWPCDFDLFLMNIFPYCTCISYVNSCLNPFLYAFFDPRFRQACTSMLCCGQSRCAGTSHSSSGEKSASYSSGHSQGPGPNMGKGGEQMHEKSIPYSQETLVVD
Experiment: In vitro apelin agonist activity (methods of Giddings et al., Apelin-13 as positive control)
Assay type: cell-based
Settings: in vitro apelin agonist activity, methods of Giddings et al., Apelin-13 as positive control; read-out: EC50 (nM) Ave
Source text: Characterization of the Apelin Agonist Activity of the Compounds
1:39-47, the contents of which are hereby incorporated by reference in its entirety. Using the methods described in Giddings et al. and Apelin-13 as a positive control.

Row | EC50 | Structure (SMILES)
1 | 36 nM | CCCN(CCC)CC[C@@H](CC(=O)NC1CCC1)NC(=O)c1cc(-c2ccccc2C(F)(F)F)n(C2CCCC2)n1 [compound 492, (3S)-N-cyclobutyl-3-({1-cyclopentyl-5-[2-(trifluoromethyl)phenyl]-1H-pyrazol-3-yl}formamido)-5-(dipropylamino)pentanamide]
2 | 6.1 nM | O=C(C[C@H](CCN1CCCC(F)(F)C1)NC(=O)c1cc(-c2ccccc2Cl)n(C2CCCC2)n1)Nc1nccs1 [compound 429, (3S)-3-{[5-(2-chlorophenyl)-1-cyclopentyl-1H-pyrazol-3-yl]formamido}-5-(3,3-difluoropiperidin-1-yl)-N-(1,3-thiazol-2-yl)pentanamide]
3 | 435 nM | O=C(N[C@@H](CCc1ccc(F)cc1)Cc1nnc[nH]1)c1cc(-c2ccccc2C(F)(F)F)n(C2CCCC2)n1 [compound 470, 1-cyclopentyl-N-[(2S)-4-(4-fluorophenyl)-1-(4H-1,2,4-triazol-3-yl)butan-2-yl]-5-[2-(trifluoromethyl)phenyl]-1H-pyrazole-3-carboxamide]
4 | 3510 nM | COc1cccc(OC)c1-c1cc(C(=O)N[C@@H](CCN2CCCCCC2)CC(=O)OC(C)(C)C)nn1C1CCCC1 [compound 319, tert-butyl (3S)-5-(azepan-1-yl)-3-{[1-cyclopentyl-5-(2,6-dimethoxyphenyl)-1H-pyrazol-3-yl]formamido}pentanoate]
5 | 205 nM | O=C(O)C[C@@H](NC(=O)c1cc(-c2ccccc2C(F)(F)F)n(C2CCCC2)n1)C(=O)NC1CCCCC1 [compound 544, (3R)-3-(cyclohexylcarbamoyl)-3-({1-cyclopentyl-5-[2-(trifluoromethyl)phenyl]-1H-pyrazol-3-yl]formamido)propanoic acid]
6 | 16 nM | CC(F)(F)c1ccccc1-c1cc(C(=O)N[C@@H](CCN2CCC(F)(F)C2)CC(=O)O)nn1C1CCCC1 [compound 537, (3S)-3-({1-cyclopentyl-5-[2-(1,1-difluoroethyl)phenyl]-1H-pyrazol-3-yl}formamido)-5-(3,3-difluoropyrrolidin-1-yl)pentanoic acid]
7 | 31 nM | COc1cccc(OC)c1-c1cc(C(=O)N[C@@H](CCN2CCCCC2)CC(=O)Nc2ncco2)nn1C1CCCC1 [compound 339, (3S)-3-{[1-cyclopentyl-5-(2,6-dimethoxyphenyl)-1H-pyrazol-3-yl]formamido}-N-(1,3-oxazol-2-yl)-5-(piperidin-1-yl)pentanamide]
8 | 5860 nM | O=C(C[C@H](CCN1CCCCC1)NC(=O)c1cc(-c2cccs2)n(C2CCCC2)n1)NC1CCC1 [compound 362, (3S)-N-cyclobutyl-3-{[1-cyclopentyl-5-(thiophen-2-yl)-1H-pyrazol-3-yl]formamido}-5-(piperidin-1-yl)pentanamide]
9 | 130 nM | O=C(O)C[C@H](CCN1CCCC(F)(F)C1)NC(=O)c1cc(-c2ccccc2C(F)(F)F)n(CC2CCC2)n1 [compound 571, (3S)-3-{[1-(cyclobutylmethyl)-5-[2-(trifluoromethyl)phenyl]-1H-pyrazol-3-yl}formamido}-5-(3,3-difluoropiperidin-1-yl)pentanoic acid]
10 | 70 nM | CN(C(=O)C[C@H](CCN1CCCC(F)(F)C1)NC(=O)c1cc(-c2ccccc2Cl)n(C2CCCC2)n1)c1ncco1 [compound 452, (3S)-3-{[5-(2-chlorophenyl)-1-cyclopentyl-1H-pyrazol-3-yl]formamido}-5-(3,3-difluoropiperidin-1-yl)-N-methyl-N-(1,3-oxazol-2-yl)pentanamide]
11 | 1380 nM | NS(=O)(=O)C[C@H](CC(=O)N1CCCC(F)(F)C1)NC(=O)c1cc(-c2ccccc2C(F)(F)F)n(C2CCCC2)n1 [compound 540, 1-cyclopentyl-N-[(2S)-4-(3,3-difluoropiperidin-1-yl)-4-oxo-1-sulfamoylbutan-2-yl]-5-[2-(trifluoromethyl)phenyl]-1H-pyrazole-3-carboxamide]
12 | 27 nM | O=C(N[C@@H](CCN1CCCC(F)(F)C1)Cc1nnn[nH]1)c1cc(-c2ncccc2C(F)(F)F)n(C2CCCC2)n1 [compound 641]
13 | 23 nM | C[C@@H](C(=O)O)[C@H](CCN1CCCC(F)(F)C1)NC(=O)c1cc(-c2ccccc2C(F)(F)F)n(C2CCCC2)n1 [compound 597, (2R,3S)-3-({1-cyclopentyl-5-[2-(trifluoromethyl)phenyl]-1H-pyrazol-3-yl}formamido)-5-(3,3-difluoropiperidin-1-yl)-2-methylpentanoic acid]
14 | > 10000 nM | COc1cccc(OC)c1-c1cc(C(=O)N[C@H](CC(=O)O)Cc2ccccc2)nn1CC(C)C [compound 297, (3S)-3-{[5-(2,6-dimethoxyphenyl)-1-(2-methylpropyl)-1H-pyrazol-3-yl]formamido}-4-phenylbutanoic acid]
15 | 822 nM | CN(C[C@@H](CC(=O)O)NC(=O)c1cc(-c2ccccc2C(F)(F)F)n(C2CCCC2)n1)C1CCCCC1 [compound 533, (3R)-4-[cyclohexyl(methy)amino1]-3-({1-cyclopentyl-5-[2-(trifluoromethyl)phenyl]-1H-pyrazol-3-yl}formamido)butanoic acid]
16 | > 10000 nM | COc1cccc(OC)c1-c1cc(C(=O)N[C@H](CCO)CCN2CCCCC2)nn1C1CCCC1 [compound 358]
17 | 64 nM | O=C(C[C@H](CCN1CCCCC12COC2)NC(=O)c1cc(-c2ccccc2C(F)(F)F)n(C2CCCC2)n1)NC1CCC1 [compound 522]
18 | > 10000 nM | O=C(C[C@H](CCN1CCCCC1)NC(=O)c1cc(-c2ccccc2)n(C2CCCC2)n1)NC1CCC1 [compound 365, (3S)-N-cyclobutyl-3-[(1-cyclopentyl-5-phenyl-1H-pyrazol-3-yl)formamido]-5-(piperidin-1-yl)pentanamide]
19 | 2.76 nM | O=C(C[C@H](CCN1CCC(F)(F)C1)NC(=O)c1cc(-c2ccccc2C(F)(F)F)n(C2CCCC2)n1)NC1CCC1 [compound 480, (3S)-N-cyclobutyl-3-({1-cyclopentyl-5-[2-(trifluoromethyl)phenyl]-1H-pyrazol-3-yl}formamido)-5-(3,3-difluoropyrrolidin-1-yl)pentanamide]
20 | 88 nM | C[C@H](C(=O)O)[C@H](CCN1CCCC(F)(F)C1)NC(=O)c1cc(-c2ccccc2C(F)(F)F)n(C2CCCC2)n1 [compound 596, (2S,3S)-3-({1-cyclopentyl-5-[2-(trifluoromethyl)phenyl]-1H-pyrazol-3-yl}formamido)-5-(3,3-difluoropiperidin-1-yl)-2-methylpentanoic acid]
21 | 0.86 nM | O=C(C[C@H](CCN1CCCC(F)(F)C1)NC(=O)c1cc(-c2ncccc2C(F)(F)F)n(C2CCCC2)n1)NC1CCC1 [compound 479, (3S)-N-cyclobutyl-3-({1-cyclopentyl-5-[3-(trifluoromethyl)pyridin-2-yl]-1H-pyrazol-3-yl}formamido)-5-(3,3-difluoropiperidin-1-yl)pentanamide]
22 | 128 nM | O=C(O)C[C@H](CCN1CC(C(F)(F)F)C1)NC(=O)c1cc(-c2ccccc2C(F)(F)F)n(C2CCCC2)n1 [compound 601, (3S)-3-({1-cyclopentyl-5-[2-(trifluoromethyl)phenyl]-1H-pyrazol-3-yl]formamido)-543-(trifluoromethypazetidin-1-yl]pentanoic acid]
23 | > 10000 nM | COc1cccc(OC)c1-c1cc(C(=O)N[C@@H](CCc2ccccc2)CC(N)=O)nn1C1CCCC1 [compound 392, (3S)-3-{[1-cyclopentyl-5-(2,6-dimethoxyphenyl)-1H-pyrazol-3-yl]formamido}-5-phenylpentanamide]
24 | 126 nM | O=C(O)C[C@H](CCN1CCCC(F)(F)C1)NC(=O)c1cc(-c2ccc(F)cc2C(F)(F)F)n(C2CCCC2)n1 [compound 554]
25 | 1870 nM | O=C(O)C[C@@H](CCN1CCCC(F)(F)C1)NC(=O)c1cc(-c2ccccc2C(F)(F)F)n(C2CCCC2)n1 [compound 579, (3R)-3-({1-cyclopentyl-5-[2-(trifluoromethyl)phenyl]-1H-pyrazol-3-yl}formamido)-5-(3,3-difluoropiperidin-1-yl)pentanoic acid]
26 | 146 nM | O=C(N[C@@H](CCc1ccc(F)cc1)Cc1nnc(C(F)(F)F)o1)c1cc(-c2ccccc2C(F)(F)F)n(C2CCCC2)n1 [compound 475, 1-cyclopentyl-N-[(2S)-4-(4-fluorophenyl)-1-[5-(trifluoromethyl)-1,3,4-oxadiazol-2-yl]butan-2-yl]-5-[2-(trifluoromethyl)phenyl]-1H-pyrazole-3-carboxamide]
27 | 109 nM | O=C(O)C[C@H](CCN1C[C@H](F)[C@@H](F)C1)NC(=O)c1cc(-c2ccccc2C(F)(F)F)n(C2CCCC2)n1 [compound 582, (3S)-3-({1-cyclopentyl-5-[2-(trifluoromethyl)phenyl]-1H-pyrazol-3-yl}formamido)-5-[(3S,4S)-3,4-difluoropyrrolidin-1-yl]pentanoic acid]
28 | 5180 nM | COc1cccc(OC)c1-c1cc(C(=O)N[C@@H](CCc2ccccc2)CC(=O)NCc2nnn[nH]2)nn1C1CCCC1 [compound 383, (3S)-3-{[1-cyclopentyl-5-(2,6-dimethoxyphenyl)-1H-pyrazol-3-yl]formamido}-5-phenyl-N-(1H-1,2,3,4-tetrazol-5-ylmethyl)pentanamide]

Row | Structure (SMILES) | EC50
29 | COc1cccc(OC)c1-c1cc(C(=O)N[C@@H](CCC2CCCCC2)CC(=O)O)nn1CC1CCCCC1 [compound 648] | > 10000 nM
30 | COc1cccc(OC)c1-c1cc(C(=O)N[C@@H](CC2CCC2)C(=O)O)nn1C1CCCC1 [compound 386, (2S)-3-cyclobutyl-2-{[1-cyclopentyl-5-(2,6-dimethoxyphenyl)-1H-pyrazol-3-yl]formamido}propanoic acid] | 6170 nM
